The subject of one experiment is SH-SY5Y cells. The experiment can be described thus: Protection of SH-SY5Y cells against methylglyoxal toxicity (MTT assay). The experiment is classed as cell-based. The settings on record: methylglyoxal 1.5 mmol·l-1, SY5Y cells.
Experiment [1] concerns the target T1, IGF-1R (Homo sapiens, UniProt P08069). Conditions: cited from earlier work.
A further experiment addresses IR-A (Homo sapiens, UniProt P06213). Conditions: published; (Kd of native hormone/Kd of derivative) × 100; cited from earlier work.
The target of another experiment is IR-B (Homo sapiens, UniProt P06213). Conditions: published; (Kd of native hormone/Kd of derivative) × 100; cited from earlier work.
In experiment [2] the target is T1, IGF-1R. As to the kind of experiment: competition with 125I-IGF-1 on mouse fibroblasts transfected with human IGF-1R; relative to human insulin.
Where [3] appears, read: published, (Kd of native hormone/Kd of derivative) × 100.

“And” between values parts separate entries of the source, which are not always exact repeats. Equal entries are not always repeated. Where two headings read alike, the source gives them in different places. Marks after values point to notes of the source that are not given here.

Chain of IR-A (P06213 28-1370 isoform P06213-2 limits assumed): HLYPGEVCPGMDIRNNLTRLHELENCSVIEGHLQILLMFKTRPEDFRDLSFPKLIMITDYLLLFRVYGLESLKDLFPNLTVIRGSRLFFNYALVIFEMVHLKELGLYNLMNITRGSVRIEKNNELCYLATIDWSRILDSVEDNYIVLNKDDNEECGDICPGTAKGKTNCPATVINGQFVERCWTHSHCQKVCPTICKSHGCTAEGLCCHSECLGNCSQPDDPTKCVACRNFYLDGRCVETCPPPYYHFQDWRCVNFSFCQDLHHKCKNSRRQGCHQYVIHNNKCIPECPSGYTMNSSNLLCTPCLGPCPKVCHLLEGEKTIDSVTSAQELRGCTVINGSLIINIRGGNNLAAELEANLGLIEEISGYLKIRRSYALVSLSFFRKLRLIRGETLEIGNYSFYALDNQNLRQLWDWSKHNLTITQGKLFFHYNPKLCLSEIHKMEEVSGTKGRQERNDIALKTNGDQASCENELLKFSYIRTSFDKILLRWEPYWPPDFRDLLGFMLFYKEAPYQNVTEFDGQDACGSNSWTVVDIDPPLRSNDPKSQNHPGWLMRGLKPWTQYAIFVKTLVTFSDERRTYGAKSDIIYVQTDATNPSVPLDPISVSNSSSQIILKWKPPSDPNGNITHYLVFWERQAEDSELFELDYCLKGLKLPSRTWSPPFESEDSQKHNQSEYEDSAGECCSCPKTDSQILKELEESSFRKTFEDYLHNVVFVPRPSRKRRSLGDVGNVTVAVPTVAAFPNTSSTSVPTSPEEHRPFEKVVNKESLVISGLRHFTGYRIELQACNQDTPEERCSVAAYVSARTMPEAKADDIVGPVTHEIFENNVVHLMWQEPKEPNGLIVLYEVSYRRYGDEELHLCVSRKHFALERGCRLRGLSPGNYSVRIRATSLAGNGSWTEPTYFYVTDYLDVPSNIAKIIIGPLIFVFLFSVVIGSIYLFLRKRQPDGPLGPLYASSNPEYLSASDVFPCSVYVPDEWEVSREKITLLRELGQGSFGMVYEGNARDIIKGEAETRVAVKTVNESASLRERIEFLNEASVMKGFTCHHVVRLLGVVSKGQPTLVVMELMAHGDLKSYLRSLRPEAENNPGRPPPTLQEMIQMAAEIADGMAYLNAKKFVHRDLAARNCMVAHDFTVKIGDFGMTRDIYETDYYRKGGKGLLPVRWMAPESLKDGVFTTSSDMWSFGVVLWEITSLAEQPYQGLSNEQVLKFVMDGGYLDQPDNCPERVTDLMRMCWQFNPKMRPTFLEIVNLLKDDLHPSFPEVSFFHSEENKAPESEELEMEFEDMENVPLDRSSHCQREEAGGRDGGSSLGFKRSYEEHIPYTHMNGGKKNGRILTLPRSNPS
Chain of IR-A (P06213 763-1382 limits assumed): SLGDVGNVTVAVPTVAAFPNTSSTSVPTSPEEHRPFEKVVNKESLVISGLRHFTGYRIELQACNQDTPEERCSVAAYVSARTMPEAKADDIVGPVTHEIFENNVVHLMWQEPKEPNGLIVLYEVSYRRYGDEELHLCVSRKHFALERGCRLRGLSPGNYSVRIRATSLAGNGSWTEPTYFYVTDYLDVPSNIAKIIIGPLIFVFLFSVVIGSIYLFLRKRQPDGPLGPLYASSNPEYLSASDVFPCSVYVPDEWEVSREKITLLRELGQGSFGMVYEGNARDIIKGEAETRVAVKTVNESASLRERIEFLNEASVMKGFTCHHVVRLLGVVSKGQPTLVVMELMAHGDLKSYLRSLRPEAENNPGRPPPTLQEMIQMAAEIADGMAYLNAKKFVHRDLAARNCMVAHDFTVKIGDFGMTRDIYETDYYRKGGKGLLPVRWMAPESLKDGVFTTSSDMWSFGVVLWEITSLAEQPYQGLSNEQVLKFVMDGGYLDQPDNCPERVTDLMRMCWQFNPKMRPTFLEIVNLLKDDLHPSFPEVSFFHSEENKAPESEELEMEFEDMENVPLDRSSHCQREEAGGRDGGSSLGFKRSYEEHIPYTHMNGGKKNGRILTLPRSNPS
Chain of IR-B (P06213 28-758 limits assumed): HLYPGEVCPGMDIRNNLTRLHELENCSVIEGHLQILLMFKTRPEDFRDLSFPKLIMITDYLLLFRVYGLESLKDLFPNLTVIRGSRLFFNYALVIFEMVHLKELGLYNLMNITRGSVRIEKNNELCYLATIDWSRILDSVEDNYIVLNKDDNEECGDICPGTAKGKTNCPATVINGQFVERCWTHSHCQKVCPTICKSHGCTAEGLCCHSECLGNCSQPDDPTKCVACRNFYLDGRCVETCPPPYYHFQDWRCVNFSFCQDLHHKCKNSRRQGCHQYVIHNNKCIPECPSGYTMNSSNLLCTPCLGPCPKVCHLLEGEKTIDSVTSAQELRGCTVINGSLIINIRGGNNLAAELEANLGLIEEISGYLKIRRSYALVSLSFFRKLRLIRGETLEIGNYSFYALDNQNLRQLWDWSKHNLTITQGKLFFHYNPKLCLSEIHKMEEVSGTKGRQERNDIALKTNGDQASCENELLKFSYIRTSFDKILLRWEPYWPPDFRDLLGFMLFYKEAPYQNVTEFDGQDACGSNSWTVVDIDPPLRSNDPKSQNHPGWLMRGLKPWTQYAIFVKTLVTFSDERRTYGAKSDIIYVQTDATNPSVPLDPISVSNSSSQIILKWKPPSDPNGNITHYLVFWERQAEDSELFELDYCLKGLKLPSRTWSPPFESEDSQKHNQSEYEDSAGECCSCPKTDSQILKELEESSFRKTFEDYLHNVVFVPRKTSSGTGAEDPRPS
Chain of IR-B (P06213 763-1382 limits assumed): as the sequence (P06213 763-1382 limits assumed) above
Chain of IN-ML-15 (GluB10, D-HisB24, GlyB31, TyrB32-insulin) (ligand) (chain): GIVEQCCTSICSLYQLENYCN
Chain of IN-ML-15 (GluB10, D-HisB24, GlyB31, TyrB32-insulin) (ligand) (chain): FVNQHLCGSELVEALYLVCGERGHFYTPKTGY

Take `CC(=O)C=O` [Methylglyoxal, methylglyoxal]: the “amount of cells grown in the wells compared with the control” value in the experiment with SH-SY5Y cells was 50-60%. For AspB10-insulin, the “Relative binding affinity for IGF-1R (%)” value in the experiment with IGF-1R [1] (Converted from Schaffer data) is reported as 0.2* %. Further, the “Relative binding affinity for IR-A (%)” value in the experiment with IR-A is listed as 206%. With D-AlaB24-insulin, on IR-A, the “Relative binding affinity for IR-A (%)” value is on record as 150%. As for D-HisB24, GlyB31, TyrB32-insulin, the “Relative binding affinity for IR-B (%)” value on IR-B is on record as 338%. For the same molecule, the “Relative binding affinity for IGF-1R (%)” value on IGF-1R [1] (setting [3]) was 12% and 12.4%. Also, the “Relative binding affinity for IR-A (%)” value on IR-A is given as 251%.

Turning to D-HisB24-insulin, on IR-B, the “Relative binding affinity for IR-B (%)” value is listed as 250%. In addition, on IGF-1R [1] (setting [3]), the “Relative binding affinity for IGF-1R (%)” value was 1.0%. The “Relative binding affinity for IR-A (%)” value at IR-A is 280%. As for D-PheB24-insulin, the “Relative binding affinity for IR-A (%)” value on IR-A is 180%.

With D-ProB24-insulin, the “Relative binding affinity for IR-A (%)” value at IR-A is on record as 1.3%. Regarding GluB10-insulin, the “Relative binding affinity for IR-A (%)” value with IR-A is reported as 407%. On to GlyB31, TyrB32-insulin, for which the “Relative binding affinity for IR-B (%)” value on IR-B was 310%. In addition, the “Relative binding affinity for IGF-1R (%)” value on IGF-1R [1] (setting [3]) is listed as 0.27%. Besides, on IR-A, the “Relative binding affinity for IR-A (%)” value is given as 162%.

The molecule “IN-ML-15 (GluB10, D-HisB24, GlyB31, TyrB32-insulin) (ligand)” returned a times more potent than insulin with IGF-1R [2] of 790 times.

These data come from patent US20260174874A1, “INSULIN DERIVATIVES” (USTAV ORGANICKE CHEMIE A BIOCHEMIE AKADEMIE VED CR, V. V. I., priority 2022, published 2026).
